Assays:
Format in all cases: cell-based, male wister rats
fat cells [1] = assay: Decomposition by adrenalin of the fat in the fat cells; settings: adrenalin 1 μg/ml + saponin 20 μg/ml, 37° C., two hours; for inhibition at 20 µg/mL: Rattus norvegicus, 2 h, read-out: Rate of inhibition
Protocol: A small section was prepared from 4 g of the fat tissue, and placed in 10 ml. of Krebs-Ringer bicarbonate buffer containing 0.4 g of albumin, 10 mg of collagenase and 5 mg of glucose, and having a pH value of 7.4. […] Added into the fat cell were 10 ml. of the aforesaid buffer (pH 7.4), and the solution was carefully stirred to wash the fat cell, followed by centrifugal separation at 300 rpm for 30 seconds. This procedure was repeated twice, whereby the fat cells were washed perfectly, and these fat cells were used for the tests.
The fat cells obtained by treating with collagenase were suspended in Krebs-Ringer phosphate buffer (KRP) having a pH value of 7.4. Placed into a test tube were 0.3 ml. of the solution thus obtained, and containing 100 mg of fat cells, 0.1 ml. of an adrenalin solution containing 1 μg of adrenalin, 0.1 ml. of a saponin solution containing 20 μg of saponin, and 0.5 ml. of a 5% albumin solution in KRP, and having a pH value adjusted to 7.4. […] More specifically, 3 ml. of Dole's extract were placed in the reaction system, and after they were shaked for five minutes, 3 ml. of heptane were dispensed, and 1 ml. of a thymol blue solution was added thereinto. The resulting solution was titrated with a 0.008 N aqueous solution of sodium hydroxide, while it was being stirred with nitrogen, and the amount of the resulting free fatty acid was determined in accordance with a calibration curve.
The rate of inhibition was obtained in accordance with the equation shown at (1) above.

fat cells [2] = assay: Decomposition of the fat in the fat cell by ACTH; settings: 37° C., two hours; for inhibition at 20 µg/mL: Rattus norvegicus, 2 h, read-out: Rate of inhibition
Protocol: (§1) Fat tissues were separated from the epididymides of male wister rats weighing 150 to 180 g each, and fat cells were obtained therefrom in accordance with the Rodbell's method [M. Rodbell, J. Biol. Chem., 239, 375 (1964)]. A small section was prepared from 4 g of the fat tissue, and placed in 10 ml. of Krebs-Ringer bicarbonate buffer containing 0.4 g of albumin, 10 mg of collagenase and 5 mg of glucose, and having a pH value of 7.4. It was heated at 37° C. for 50 minutes, and subjected to centrifugal separation at 300 rpm, whereby a floating fat cell layer was separated. Added into the fat cell were 10 ml. of the aforesaid buffer (pH 7.4), and the solution was carefully stirred to wash the fat cell, followed by centrifugal separation at 300 rpm for 30 seconds. This procedure was repeated twice, whereby the fat cells were washed perfectly, and these fat cells were used for the tests.
The fat cells obtained by treating with collagenase were suspended in Krebs-Ringer bicarbonate buffer (KRB) having a pH value of 7.4. Placed into a test tube were 0.3 ml. of the solution thus obtained (containing 100 mg of fat cells), 0.1 ml. of ACTH solution containing 1 μg of ACTH, 0.1 ml. of each saponin solution containing 500 μg of saponin, and 0.3 ml. of a 5% alubumin solution in KRB, and having a pH value adjusted to 7.4. They were heated at 37° C. for two hours, and the amount of the resulting free fatty acid was determined in accordance with the Dole's method [V. P. Dole, J. Biol. Chem., 35, 150 (1958)].
Namely, 3 ml. of Dole's extract were separated into the reaction system, and 1 ml. of a thymol blue solution was added thereinto. Nitrogen was blown into the resulting solution, and the solution was titrated with a 0.008 N aqueous solution of sodium hydroxide, while it was being stirred. The amount of the resulting free fatty acid was determined in accordance with a calibration curve.
The rate of inhibition against fat decomposition was obtained in accordance with the following equation: [formula] wherein A stands for the amount of the free fatty acid formed by addition of ACTH along in the amount of 1 μg/ml.; and B stands for the amount of the free fatty acid formed by addition of ACTH and saponin in the amount of 1 μg/ml. and 20 μg/ml., respectively.

fat cells [3] = assay: Synthesis of fat from glucose in fat cells; settings: 20 μg/ml; for Power for synthesis of neutral fat from glucose: 37° C., half an hour; for activation at 20 µg/mL: Rattus norvegicus, 0.5 h, read-out: Rate of promotion; for activation at 20 µg/mL / Rate of promotion: none = 100
Protocol: as §1
^14 C-glucose having its carbon atoms marked with radioactivity was reacted upon fat cells, and a Geiger count was read to determine the amount of the glucose participating in the fat synthesis and incorporated into the fat cells as a neutral fat, whereby gynosaponins were tested for their effects on the power of the glucose for fat synthesis.
More specifically, the fat cells obtained by treating with collagenase were suspended in KRB, and 0.35 ml. of the resulting solution containing 100 mg of fat cells was placed into a test tube with 0.1 ml. of each saponin solution containing 20 μg of saponin, 0.5 ml. of a 5% albumin solution in KRB, containing 10 mM glucose and having a pH value of 7.4, and 0.05 ml. of a ^14 C-glucose solution which was a 0.5 μCi KRP solution having a pH value of 7.4 and containing 10 mM glucose. They were heated at 37° C. for half an hour, and after 5 ml. of Dole's extract were added and the whole was shaked for five minutes, 3 ml. of heptane and 2 ml. of water were added, and the whole was shaked for five minutes. 3 ml. of a heptane layer were separated, and after an alkaline ethanol solution (0.5 N sodium hydroxide solution, 50 % ethanol solution) was added in the amount of 3 ml., the whole was shaked for five minutes. Then, 1 ml. of an ethanol layer was separated, and 10 ml. of a toluene scintillation solution were added thereinto, followed by determination according to the method of Skipski et al. [Biochem. Biophys. Acta, 106, 386 (1965)].

[4] = ACTH 1 μg/ml + saponin 20 μg/ml

| Compound | inhibition at 20 µg/mL (fat cells [1]) [%] | Free fatty acid formed by decomposition of fat (fat cells [1]) [μ Eq/g] | Free fatty acid formed by decomposition of fat (fat cells [2]; [4]) [μ Eq/g] | inhibition at 20 µg/mL (fat cells [2]; [4]) [%] | Power for synthesis of neutral fat from glucose (fat cells [3]) | activation at 20 µg/mL (fat cells [3]) [%] | Rate of inhibition (fat cells [1]) [%] | Rate of inhibition (fat cells [2]; [4]) [%] | Rate of promotion (fat cells [3]) [%] | Free fatty acid formed by decomposition of fat (fat cells [2]; ACTH alone, 1 μg/ml) [μ Eq/g] |
| --- | --- | --- | --- | --- | --- | --- | --- | --- | --- | --- |
| CC(C)=CCC[C@](C)(O[C@@H]1O[C@H](CO[C@@H]2OC[C@@H](O)[C@H](O)[C@H]2O)[C@@H](O)[C@H](O)[C@H]1O)[C@H]1CC[C@]2(C)[C@@H]1[C@H](O)C[C@@H]1[C@@]3(C)CC[C@H](O[C@@H]4O[C@H](CO)[C@@H](O)[C@H](O)[C@H]4O)C(C)(C)[C@@H]3CC[C@]12C [gynosaponin I, 20S-Protopanaxadiol-3-O-β-D-glucopyranoside-20-O-[β-D-xylopyranosyl (1→6)-β-D-glucopyranoside]] | 10 | 12.7 | 6.6 | 21 | 10,564 cpm/g | 49 | – | – | – | – |
| CC(C)=CCC[C@](C)(O[C@@H]1O[C@H](CO[C@@H]2O[C@@H](C)[C@H](O)[C@@H](O)[C@H]2O)[C@@H](O)[C@H](O)[C@H]1O)[C@H]1CC[C@]2(C)[C@@H]1[C@H](O)C[C@@H]1[C@@]3(C)CC[C@H](O)C(C)(C)[C@@H]3CC[C@]12C [gynosaponin N, 20S-Protopanaxadiol-20-O-[α-L-rhamnopyranosyl (1→6)-β-D-glucopyranoside]] | 6 | 13.3 | 5.2 | 38 | 9,870 cpm/g | 46 | – | – | – | – |
| CC(C)=CCC[C@](C)(O[C@@H]1O[C@H](CO[C@@H]2O[C@H](CO)[C@@H](O)[C@H](O)[C@H]2O)[C@@H](O)[C@H](O)[C@H]1O)[C@H]1CC[C@]2(C)[C@@H]1[C@H](O)C[C@@H]1[C@@]3(C)CC[C@H](O[C@@H]4O[C@H](CO)[C@@H](O)[C@H](O)[C@H]4O)C(C)(C)[C@@H]3CC[C@]12C [gynosaponin S, 20S-Protopanaxadiol-3-O-β-D-glucopyranoside-20-O-[β-D-glucopyranosyl (1→6)-β-D-glucopyranoside]] | 4 | 13.5 | 5.4 | 36 | 10,100 cpm/g | 47 | – | – | – | – |
| CC(=CCCC(C)(OC1OC(COC2OC(C)C(O)C(O)C2O)C(O)C(O)C1O)C1CCC2(C)C1C(O)CC1C3(C)CCC(OC4OC(CO)C(O)C(O)C4OC4OC(CO)C(O)C(O)C4O)C(C)(C)C3CCC12C)CO [gynosaponin P, 20S,26-Hydroxyprotopanaxadiol-3-O-[β-D-glucopyranosyl (1→2)-β-D-glucopyranoside]-20-O-[α-L-rhamnopyranosyl (1→6)-β-D-glucopyranoside]] | 10 | 12.7 | 6.6 | 21 | 8,165 cpm/g | 38 | – | – | – | – |
| 20S,26-Hydroxyprotopanaxadiol-3-O-{[β-D-glucopyranosyl (1→2)-α-L-rhamnopyranosyl (1→6)]-β-D-glucopyranoside}-20-O-[β-D-glucopyranosyl (1→6)-β-D-glucopyranoside] [gynosaponin T] | – | 13.1 | 6.3 | – | 11,150 cpm/g | – | 7 | 25 | 52 | – |
| CC(C)=CCC[C@](C)(O[C@@H]1O[C@H](CO[C@@H]2O[C@@H](C)[C@H](O)[C@@H](O)[C@H]2O)[C@@H](O)[C@H](O)[C@H]1O)[C@H]1CC[C@]2(C)[C@@H]1[C@H](O)C[C@@H]1[C@@]3(C)CC[C@H](O[C@@H]4O[C@H](CO[C@@H]5O[C@@H](C)[C@H](O)[C@@H](O)[C@H]5O)[C@@H](O)[C@H](O)[C@H]4O)C(C)(C)[C@@H]3CC[C@]12C [gynosaponin G, 20S-Protopanaxadiol-3,20-bis-O-[α-L-rhamnopyranosyl (1→6)-β-D-glucopyranoside]] | 2 | 13.8 | 5.8 | 31 | 8,925 cpm/g | 42 | – | – | – | – |
| ACTH: ACTH, used at 1 μg/ml to decompose fat in fat cells (SYSMEHFRWGKPVGKKRRPVKVYPNGAEDESAEAFPLEF; Corticotropin; UniProt P01189 138-176, looked up) [reference compound] | – | – | – | – | – | – | – | – | – | 8.4 |
| CC(C)=CCC[C@](C)(O[C@@H]1O[C@H](CO)[C@@H](O)[C@H](O)[C@H]1O)[C@H]1CC[C@]2(C)[C@@H]1[C@H](O)C[C@@H]1[C@@]3(C)CC[C@H](O[C@@H]4O[C@H](CO[C@@H]5O[C@@H](C)[C@H](O)[C@@H](O)[C@H]5O)[C@@H](O)[C@H](O)[C@H]4O)C(C)(C)[C@@H]3CC[C@]12C [gynosaponin K, 20S-Protopanaxadiol-3-O-[α-L-rhamnopyranosyl (1→6)-β-D-glucopyranoside]-20-O-β-D-glucopyranoside] | 2 | 13.8 | 6.1 | 27 | 13,600 cpm/g | 63 | – | – | – | – |
| 20S,26-Hydroxyprotopanaxadiol-3-O-{[β-D-glucopyranosyl (1→2)-α-L-rhamnopyranosyl (1→6)]-β-D-glucopyranoside}-20-O-[α-L-rhamnopyranosyl (1→6)-β-D-glucopyranoside] [gynosaponin O] | – | 13.9 | 5.6 | – | 8,263 cpm/g | – | 1 | 33 | 38 | – |
| 20S-Protopanaxadiol-3-O-{[β-D-glucopyranosyl (1→2)-α-L-rhamnopyranosyl (1→6)]-β-D-glucopyranoside}-20-O-[α-L-rhamnopyranosyl (1→6)-β-D-glucopyranoside] [gynosaponin B] | – | 9.1 | 6.9 | – | 12,308 cpm/g | – | 35 | 18 | 57 | – |

Source: patent US4339442A, “Gynosaponins, their use and a process for preparing the same” (priority 1980, dated 1982)
